# In patent publication EP1285920A1, “C10 Ester sustituted taxanes as antitumor agents” (Florida State University Research Foundation, Inc., priority 2001, dated 2003):
# Read-outs that look alike come from different tables or passages of the source.
# Assays:
# [1] = system: MX-1 human breast carcinoma; assay type: in vivo
# Experimental: Antitumor compounds were administered orally in a study to investigate whether such a formulation is efficacious against the MX-1 human breast carcinoma xenograft. Antitumor compound 0499 was formulated as Solution 1 in Example 6. Antitumor compound 0550 was formulated as Solution 2 in Example 6. Antitumor compound 0611 was formulated as Solution 3 in Example 6. Antitumor compound 0748 was formulated as Solution 4 in Example 6. Other antitumor compounds were formulated similarly. The compounds were prepared in a vehicle of 90% saline, 5% Cremophor, and 5% ethanol.
# Female nu/nu mice (11-12 weeks of age; implanted subcutaneously with 1 mm^3 MX-1 human breast carcinoma fragments in the flank) were sorted into one control group (n=10) and four treatment (n=6) groups (group mean tumor size of 47-49 mg). The study was terminated on Day 63.
# [2] = system: Panc-1 pancreatic carcinoma; conditions: for Mean Score: tumor scoring system
# Experimental: The dosing volume was 0.3 ml per 20 g mouse.
# Female NCr-nude mice were implanted subcutaneously with 1 mm^3 Panc-1 pancreatic carcinoma fragments in the flank and sorted into treatment groups of six mice each. […] Dosing was initiated on Day 1. The antitumor compounds were given i.v. at an estimated maximum tolerated dose (MTD) appropriate for each agent on a qd x 1 schedule (single administration of compound). […] The vehicle was administered i.v. to control mice in Group 1 on the qd x 1 schedule.
# The mean days of survival is the number of days after which a neoplasm reached a size of 1.5 g and the animal was euthanized. A complete response is obtained if the tumor shrinks to a size smaller than its size on Day 1 of the study.
# [3] = number of mice, single oral bolus Day 1, mg/kg: 0499 80, 0550 73, 0611 113, 0748 200, 6 mice/group, Day 63
# [4] = number of mice, Taxol 15 mg/kg i.p. qd x 5, 6 mice, Day 63
# [5] = number of mice, i.v. qd x 1, mg/kg: Taxol 24, 0854 46.6, 1011 107.6, 6 mice/group, Day 63
structure (smiles),measurement,setting,value
CCC(=O)O[C@H]1C(=O)[C@@]2(C)[C@H]([C@H](OC(=O)c3ccccc3)[C@]3(O)C[C@H](OC(=O)[C@H](O)[C@H](C=C(C)C)NC(=O)OC(C)(C)C)C(C)=C1C3(C)C)[C@]1(OC(C)=O)CO[C@@H]1C[C@@H]2O [Compound 0499],complete tumor regressions,"[1]; MX-1, single oral bolus Day 1, six mice per group (0611: five evaluable), ended Day 63",two
same,Mean Day of Survival (n),"[1]; days until tumor reached 1.5 g, single oral bolus Day 1, mg/kg: 0499 80, 0550 73, 0611 113, 0748 200, 6 mice/group, terminated Day 63",56.6 ± 2.1 (3)
same,Toxic Deaths,"[1]; number of mice, single oral bolus Day 1, mg/kg: 0499 80, 0550 73, 0611 113, 0748 200, 6 mice/group",0
same,Complete Response,[1]; [3],2
same,Partial Response,[1]; [3],0
same,Stable Disease,[1]; [3],1
same,% Reduction (Weight),"[1]; po, 432 h",100.0%
"CC(=O)O[C@H]1C(=O)[C@@]2(C)[C@H]([C@H](OC(=O)c3ccccc3)[C@]3(O)C[C@H](OC(=O)[C@H](O)[C@@H](NC(=O)c4ccccc4)c4ccccc4)C(C)=C1C3(C)C)[C@]1(OC(C)=O)CO[C@@H]1C[C@@H]2O [Taxol, paclitaxel, reference compound]",MDS,"[2]; Panc-1 (Example 18), Taxol 24 mg/kg i.v. qd x 1, four mice, tumor 1.5 g, ended Day 63",34.7 days
same,Toxic Deaths,"[2]; Panc-1 (Example 18), Taxol i.p. 15 mg/kg qd x 5 (Group 3), six animals",four
same,Stable Disease,"[2]; Panc-1 (Example 18), i.v. qd x 1, Taxol 24 mg/kg split, six mice per group",one
same,toxic deaths / toxic lethalities,"[2]; Panc-1 (Example 18), i.v. qd x 1, six mice per group",One
same,MDS (n),"[2]; mean days of survival until neoplasm reached 1.5 g, i.v. qd x 1, mg/kg: Taxol 24, 0854 46.6, 1011 107.6, 6 mice/group, terminated Day 63",34.7 ± 3.4 days
same,Toxic Deaths,"[2]; number of mice, Taxol 15 mg/kg i.p. qd x 5, 6 mice",4
same,Complete Response,[2]; [4],0
same,Partial Response,[2]; [4],1
same,Stable Disease,[2]; [4],0
same,Survivors,[2]; [4],1
same,Toxic Deaths,"[2]; number of mice, i.v. qd x 1, mg/kg: Taxol 24, 0854 46.6, 1011 107.6, 6 mice/group",1
same,Complete Response,[2]; [5],0
same,Partial Response,[2]; [5],0
same,Stable Disease,[2]; [5],1
same,Survivors,[2]; [5],1
same,Mean Score,"[2]; Taxol 15 mg/kg i.p. qd x 5, 6 mice",1.2 ± 1.2
same,Mean Score,"[2]; i.v. qd x 1, mg/kg: Taxol 24, 0854 46.6, 1011 107.6, 6 mice/group",2.2 ± 0.8
